The CheMixHub ionic liquid set

Experiment: xn = mol fraction of the nth substance listed

CC(=O)[O-].CC[n+]1ccn(C)c1 + CCO + O
viscosity [mPa·s], 101 kPa
Details | 298.15 K | 313.15 K | 328.15 K | 343.15 K
x2 = 0.1044, x3 = 0.8465 | 3.75 | 2.34 | 1.6 | 1.15
x2 = 0.1179, x3 = 0.7408 | 9.38 | 5.57 | 3.58 | 2.49
x2 = 0.2002, x3 = 0.3044 | 31.9 | 18.16 | 11.45 | 7.86
x2 = 0.2242, x3 = 0.3101 | 28 | 16.28 | 10.41 | 7.22
x2 = 0.2489, x3 = 0.6021 | 8.23 | 5.06 | – | –
x2 = 0.2635, x3 = 0.6879 | 3.8 | 2.41 | 1.64 | 1.19
x2 = 0.2995, x3 = 0.4047 | 14.14 | 8.83 | 5.91 | 4.2
x2 = 0.4124, x3 = 0.1068 | 20.57 | 12.7 | 8.57 | 6.09
x2 = 0.463, x3 = 0.2523 | 10.07 | 6.66 | – | –
x2 = 0.4916, x3 = 0.4053 | 4.47 | 2.99 | – | –
x2 = 0.5914, x3 = 0.1068 | 8.43 | – | – | –
x2 = 0.7052, x3 = 0.1967 | 3.19 | – | – | –

CCCCCCCO + CCCC[n+]1ccn(C)c1.O=S(=O)([N-]S(=O)(=O)C(F)(F)F)C(F)(F)F
298 K, 100 kPa
Details | viscosity [mPa·s]
x2 = 0 | 5.956
x2 = 0.7975 | 33.43
x2 = 0.9013 | 40.9

CC(=O)[O-].CC[n+]1ccn(C)c1 + CC(=O)[O-].[NH4+]
323.15 K, 101 kPa, x2 = 0
Details | electrical conductivity [S/m] | viscosity [mPa·s]
– | 0.918 | 35.7

CCCC[n+]1ccn(C)c1.N#C[S-] + CN1CCCC1=O
viscosity [mPa·s], 101 kPa
Details | x1 = 0.0009705 | x1 = 0.001495 | x1 = 0.002117 | x1 = 0.002433 | x1 = 0.003004 | x1 = 0.003507 | x1 = 0.004097 | x1 = 0.00451
288.15 K | 2.139 | 2.145 | 2.153 | 2.158 | 2.163 | 2.166 | 2.172 | 2.178
298.15 K | 1.804 | 1.808 | 1.811 | 1.813 | 1.821 | 1.827 | 1.834 | 1.843
308.15 K | 1.563 | 1.575 | 1.582 | 1.586 | 1.593 | 1.604 | 1.616 | 1.623
318.15 K | 1.295 | 1.305 | 1.311 | 1.317 | 1.322 | 1.327 | 1.337 | 1.349

O=S(=O)([N-]S(=O)(=O)C(F)(F)F)C(F)(F)F.O=S(=O)([N-]S(=O)(=O)C(F)(F)F)C(F)(F)F.[Zn+2] + CCCC[N+]1(C)CCCC1.O=S(=O)([N-]S(=O)(=O)C(F)(F)F)C(F)(F)F
100 kPa, x1 = 0.24
Details | electrical conductivity [S/m]
356.5 K | 0.306
409.4 K | 1.24

CCCN + CCCCCC[n+]1ccn(C)c1.F[B-](F)(F)F
298.15 K, 101 kPa
Details | viscosity [mPa·s]
x1 = 0.1525 | 110
x1 = 0.5052 | 29.08
x1 = 0.9012 | 1.672
